Literature values as cited in paper PMC4844649, “A first-in-Asian phase 1 study to evaluate safety, pharmacokinetics and clinical activity of VS-6063, a focal adhesion kinase (FAK) inhibitor in Japanese patients with advanced solid tumors” (Cancer Chemotherapy and Pharmacology, 2016).
Read-outs that look alike come from different tables or passages of the source.

What was measured:
[1] = test system: Tregs and CD8 + T cells in the tumor microenvironment; design: method as in PMID 26406376; settings: squamous cell carcinoma model ref 17; cited from earlier work
advanced solid tumors = settings: cited from earlier work
[2] = design: method as in earlier work; settings: at the higher doses, phase 1 dose-escalation ref 11, 12; cited from earlier work

**Q.** For `CNC(=O)c1ccccc1Nc1cc(Nc2ccc(N3CCOCC3)cc2OC)ncc1C(F)(F)F` [VS-4718], which “effect on Tregs and CD8 + T cell-mediated anti-tumor response” value [1] is on record?
**A.** Its value is “drives depletion of Tregs and promotes a CD8 + T cell-mediated anti-tumor response”.

**Q.** With `CN(c1ncccc1CNc1nc(Nc2ccc3c(c2)CC(=O)N3)ncc1C(F)(F)F)S(C)(=O)=O` [PF-00562271] as the molecule, how does the objective radiographic responses (advanced solid tumors; phase 1 ref 10) read?
**A.** The objective radiographic responses was “No objective radiographic responses”.

**Q.** What does the source list for `COc1cc(C(=O)NC2CCN(C)CC2)c(F)cc1Nc1ncc(C(F)(F)F)c(Oc2cccc3c2C(=O)N(C)C3)n1` [BI 853520]?
**A.** objective radiographic responses (advanced solid tumors; phase 1 ref 11, 12): No objective radiographic responses; dose-limiting toxicities [2]: both proteinuria and fatigue were dose-limiting (Grade 3)

**Q.** For `CONC(=O)c1ccccc1Nc1cc(Nc2cc(C)nn2C(C)C)ncc1Cl` [GSK2256098], which objective radiographic responses (advanced solid tumors; phase 1 ref 15) is on record?
**A.** Its objective radiographic responses is “No objective radiographic responses”.
